Assays:
COX-II = target: T1, COX-II (Homo sapiens, UniProt P35354); test: Whole blood assay for COX-II (LPS-induced PGE2 production); assay type: cell-based; conditions: lipopolysaccharide 24 hrs at 37° C.
T1 construct: lipopolysaccharide for 24 hrs at 37° C. for induction of COX-II; from tissue; host or cells: fresh heparinized human whole blood from volunteers, stimulated with LPS for 24 hrs
T1 sequence (P35354 18-604): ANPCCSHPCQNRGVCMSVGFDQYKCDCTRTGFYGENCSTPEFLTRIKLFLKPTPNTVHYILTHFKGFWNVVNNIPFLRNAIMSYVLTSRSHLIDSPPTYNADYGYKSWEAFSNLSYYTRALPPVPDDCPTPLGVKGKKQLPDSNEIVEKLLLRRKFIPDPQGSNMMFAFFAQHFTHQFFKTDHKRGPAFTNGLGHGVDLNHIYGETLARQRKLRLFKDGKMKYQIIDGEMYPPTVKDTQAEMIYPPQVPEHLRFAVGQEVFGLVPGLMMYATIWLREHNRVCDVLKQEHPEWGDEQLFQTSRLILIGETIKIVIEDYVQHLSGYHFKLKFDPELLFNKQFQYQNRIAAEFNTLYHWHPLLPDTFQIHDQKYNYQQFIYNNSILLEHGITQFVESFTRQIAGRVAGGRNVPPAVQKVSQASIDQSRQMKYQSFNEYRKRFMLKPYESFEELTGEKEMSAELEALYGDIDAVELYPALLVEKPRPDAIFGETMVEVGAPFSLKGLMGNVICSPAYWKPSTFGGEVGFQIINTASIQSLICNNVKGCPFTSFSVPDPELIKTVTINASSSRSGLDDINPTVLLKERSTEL
Description: Whole Blood Assay for COX-II
Fresh blood was collected in heparinized tubes by syringe from volunteers with consent. The subjects had no apparent inflammatory conditions and had not taken any medication for at least 7 days prior to blood collection.
500 μl aliquots of human whole blood were incubated with either 2 μl dimethyl sulfoxide vehicle or 2 μl of a test compound at final concentrations for 15 min at 37° C. This was followed by incubation of the blood with […] of 5 mg/ml lipopolysaccharide for 24 hrs at 37° C. for induction of COX-II. Appropriate PBS treatments (no LPS) were used as blanks. At the end of the incubation, the blood was centrifuged at 6000×g for 5 min at 4° C. to obtain plasma. A 100 μl aliquot of plasma was mixed with 400 μl methanol for protein precipitation. The supernatant was obtained by centrifuging at 6000×g for 5 min at 4° C. and was assayed for prostaglandin E2 (PGE2) using a radioimmunoassay kit after conversion of PGE2 to its methyl oximate derivative according to the manufacturer's procedure.
For a test compound, the results were expressed as percent inhibition of […] production relative to control incubations containing dimethyl sulfoxide vehicle. The data were analyzed by that a test compound at the indicated concentrations was changed log value and was applied simple linear regression. IC50 value was calculated by least squares method.

[1] = tested on: adjuvant arthritis in rats; test: Analgesic activity: effect on adjuvant arthritis in rats (Randall-Selitto pain threshold); assay type: in vivo, Lewis rats; conditions: dose 3.2 mg/kg; ratio of threshold pressure of treated vs non-treated arthritic rats, 2 hrs after administration; ratio of 1.5 = effective dose
COX-I = target: T2, COX-I (Homo sapiens, UniProt P23219); test: Whole blood assay for COX-I (TXB2 production); assay type: cell-based; conditions: 1 hr at 37° C.
T2 construct: Fresh blood was collected by syringe without anticoagulants from volunteers with consent; from tissue; host or cells: fresh human whole blood from volunteers, no anticoagulant, left to clot
Description: [B] Inhibiting Activity Against COX-I and COX-II (Whole Blood Assay): (i) Test Method: Whole Blood Assay for COX-I
Fresh blood was collected by syringe without anticoagulants from volunteers with consent. The subjects had no apparent inflammatory conditions and had not taken any medication for at least 7 days prior to blood collection.
500 μl aliquots of human whole blood were immediately incubated with 2 μl of either dimethyl sulfoxide vehicle or a test compound at final concentrations for 1 hr at 37° C. to allow the blood to clot. Appropriate treatments (no incubation) were used as blanks. At the end of the incubation, 5 μl of 250 mM Indomethacin was added to stop the reaction. The blood was centrifuged at 6000×g for 5 min at 4° C. to obtain serum. A 100 μl aliquot of serum was mixed with 400 μl methanol for protein precipitation. The supernatant was obtained by centrifuging at 6000×g for 5 min at 4° C. and was assayed for TXB2 using an enzyme immunoassay kit according to the manufacturer's procedure. For a test compound, the results were expressed as percent inhibition of thromboxane B2(TXB2) production relative to control incubations containing dimethyl sulfoxide vehicle.
The data were analyzed by that a test compound at the indicated concentrations was changed log value and was applied simple linear regression. IC50 value was calculated by least squares method.

T2 sequence (P23219 24-599): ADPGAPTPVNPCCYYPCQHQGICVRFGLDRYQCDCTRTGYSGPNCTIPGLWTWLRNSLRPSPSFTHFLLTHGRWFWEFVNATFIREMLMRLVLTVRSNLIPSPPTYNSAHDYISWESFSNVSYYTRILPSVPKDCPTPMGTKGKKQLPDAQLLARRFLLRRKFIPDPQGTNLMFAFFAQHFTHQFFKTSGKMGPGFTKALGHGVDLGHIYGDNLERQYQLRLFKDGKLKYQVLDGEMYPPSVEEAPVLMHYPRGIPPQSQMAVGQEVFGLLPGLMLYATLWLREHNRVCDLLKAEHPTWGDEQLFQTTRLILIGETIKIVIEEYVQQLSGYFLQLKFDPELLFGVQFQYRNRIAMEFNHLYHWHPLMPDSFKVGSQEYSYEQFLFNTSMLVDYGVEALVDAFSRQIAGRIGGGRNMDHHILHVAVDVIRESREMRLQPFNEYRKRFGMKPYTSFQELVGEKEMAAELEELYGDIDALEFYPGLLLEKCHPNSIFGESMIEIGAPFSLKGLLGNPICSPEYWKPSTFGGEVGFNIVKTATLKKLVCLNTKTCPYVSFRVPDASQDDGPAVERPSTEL

| Compound | melting point [°C] | IC50 (COX-II) [nM] | The coefficient of analgesic [1] | IC50 (COX-I) [nM] |
| --- | --- | --- | --- | --- |
| COc1ccc(-c2nc(C(=O)C(C)C)cn2-c2ccc(OCc3ccccc3)cc2)cn1 [Example 57, 1-(4-Benzyloxyphenyl)-4-isopropylcarbonyl-2-(2-methoxy-5-pyridinyl)-1H-imidazole] | 118 to 120 | – | – | – |
| COc1ccc(-n2cc(C(F)F)nc2-c2ccc(OC)nc2)cc1 [Example 43, 4-Difluoromethyl-1-(4-methoxyphenyl)-2-(2-methoxy-5-pyridinyl)-1H-imidazole] | 106 to 107 | ≥ 100 | >1.5 | < 10 |
| COc1ccc(-c2nc(C(F)F)cn2-c2ccc(OC)cc2)cc1.Cl [Example 17, 4-Difluoromethyl-1-(4-methoxyphenyl)-2-(4-methoxyphenyl)-1H-imidazole hydrochloride] | 150 to 153 | ≥ 100 | – | < 10 |
| CCC(=O)c1cn(-c2ccc(OCc3ccccc3)cc2)c(-c2ccc(OC)nc2)n1 [Example 55, 1-(4-Benzyloxyphenyl)-4-ethylcarbonyl-2-(2-methoxy-5-pyridinyl)-1H-imidazole] | 126 to 128 | – | – | – |
| CCOC(=O)c1cn(-c2ccc(OC)cc2)c(-c2ccc(OC)nc2)n1 [Example 41-2, 4-Ethoxycarbonyl-1-(4-methoxyphenyl)-2-(2-methoxy-5-pyridinyl)-1H-imidazole] | 135 to 137 | – | – | – |
| CCOC(=O)c1cn(-c2ccc(OC)cc2)c(-c2ccc(OC)cc2)n1 [Example 9, 4-Ethoxycarbonyl-1-(4-methoxyphenyl)-2-(4-methoxyphenyl)-1H-imidazole] | 142 to 143 | – | – | – |
| COc1ccc(-c2nc(C(C)=O)cn2-c2ccc(OC)cc2)cc1 [Example 28, 4-Acetyl-1-(4-methoxyphenyl)-2-(4-methoxyphenyl)-1H-imidazole] | 116 to 117 | – | >1.5 | – |
| COc1ccc(-c2nc(C(F)(F)F)cn2-c2ccc(C#N)cc2)cn1 [Example 8, 1-(4-Cyanophenyl)-2-(2-methoxy-5-pyridinyl)-4-trifluoromethyl-1H-imidazole] | 155 to 158 | ≥ 100 | – | < 10 |
| COc1ccc(-n2cc(C(F)(F)F)nc2-c2ccc(OC)nc2)cc1 [Example 3-2, 1-(4-Methoxyphenyl)-2-(2-methoxy-5-pyridinyl)-4-trifluoromethyl-1H-imidazole] | 90 to 92 | ≥ 100 | >1.5 | < 10 |
| COc1ccc(-c2nc(C(N)=O)cn2-c2ccc(OC)cc2)cc1 [Example 10, 4-Carbamoyl-1-(4-methoxyphenyl)-2-(4-methoxyphenyl)-1H-imidazole] | 167 to 169 | – | – | – |
| COc1ccc(-c2nc(C(=O)C(C)C)cn2-c2ccc(O)cc2)cn1 [Example 58, 4-Isopropylcarbonyl-1-(4-hydroxyphenyl)-2-(2-methoxy-5-pyridinyl)-1H-imidazole] | 185 to 187 | – | – | – |
| CCOC(=O)c1cn(-c2ccc(OCc3ccccc3)cc2)c(-c2ccc(OC)nc2)n1 [Example 35-2, 1-(4-Benzyloxyphenyl)-4-ethoxycarbonyl-2-(2-methoxy-5-pyridinyl)-1H-imidazole] | 109 to 110 | – | – | – |
| CCN(CC)C(=O)c1cn(-c2ccc(OCc3ccccc3)cc2)c(-c2ccc(OC)cc2)n1 [Example 48, 1-(4-Benzyloxyphenyl)-4-(N,N-diethylcarbamoyl)-2-(4-methoxyphenyl)-1H-imidazole] | 146 to 147 | – | – | – |
| COc1ccc(-n2cc(C#N)nc2-c2ccc(OC)nc2)cc1 [Example 4-2, 4-Cyano-1-(4-methoxyphenyl)-2-(2-methoxy-5-pyridinyl)-1H-imidazole] | 130 to 132 | ≥ 100 | – | < 10 |
| COc1ccc(-c2nc(C(F)F)cn2-c2ccc(O)cc2)cc1 [Example 32, 4-Difluoromethyl-1-(4-hydroxyphenyl)-2-(4-methoxyphenyl)-1H-imidazole] | 143 to 145 | – | – | – |
| COc1ccc(-c2nc(C3CC3)cn2-c2ccc(OC)cc2)cc1.Cl [Example 20, 4-Cyclopropyl-1-(4-methoxyphenyl)-2-(4-methoxyphenyl)-1H-imidazole hydrochloride] | 180 to 181 | ≥ 100 | – | < 10 |
| COc1ccc(-c2nc(C#N)cn2-c2ccc(C#N)cc2)cc1 [Example 27, 4-Cyano-1-(4-cyanophenyl)-2-(4-methoxyphenyl)-1H-imidazole] | 185 to 186 | – | – | – |
| CCOC(=O)c1ccc(-n2cc(C#N)nc2-c2ccc(OC)cc2)cc1 [Example 25-2, 4-Cyano-1-(4-ethoxycarbonylphenyl)-2-(4-methoxyphenyl)-1H-imidazole] | 139 to 140 | – | – | – |
| COc1ccc(-c2nc(C)cn2-c2ccc(OC)cc2)cc1.Cl [Example 21, 1-(4-Methoxyphenyl)-2-(4-methoxyphenyl)-4-methyl-1H-imidazole hydrochloride] | 203 to 205 | ≥ 100 | – | < 10 |
| COc1ccc(-c2nc(C(F)(F)F)cn2-c2ccc(O)cc2)cn1 [Example 6, 1-(4-Hydroxyphenyl)-2-(2-methoxy-5-pyridinyl)-4-trifluoromethyl-1H-imidazole] | 198 to 200 | – | – | – |
| COc1ccc(-c2nc(C#N)cn2-c2ccc(OC)cc2)cc1 [Example 12-2, 4-Cyano-1-(4-methoxyphenyl)-2-(4-methoxyphenyl)-1H-imidazole] | 132 to 134 | – | – | – |
| COc1ccc(-c2nc(C(F)(F)F)cn2-c2ccc(Br)cc2)cc1 [Example 1-2, 1-(4-Bromophenyl)-2-(4-methoxyphenyl)-4-trifluoromethyl-1H-imidazole] | 140 to 141 | ≥ 100 | – | < 10 |
| COc1ccc(-c2nc(C(=O)O)cn2-c2ccc(OC)cc2)cc1 [Example 18, 4-Carboxy-1-(4-methoxyphenyl)-2-(4-methoxyphenyl)-1H-imidazole] | 102 to 105 | – | – | – |
| COc1ccc(-c2nc(C(F)F)cn2-c2ccc(C#N)cc2)cc1 [Example 34, 1-(4-Cyanophenyl)-4-difluoromethyl-2-(4-methoxyphenyl)-1H-imidazole] | 131 to 132 | ≥ 100 | – | < 10 |
| COc1ccc(-c2nc(C(F)(F)F)cn2-c2ccc(O)cc2)cc1 [Example 62, 1-(4-Hydroxyphenyl)-2-(4-methoxyphenyl)-4-trifluoromethyl-1H-imidazole] | 215 to 216 | – | – | – |
| CCC(=O)c1cn(-c2ccc(O)cc2)c(-c2ccc(OC)nc2)n1 [Example 56, 4-Ethylcarbonyl-1-(4-hydroxyphenyl)-2-(2-methoxy-5-pyridinyl)-1H-imidazole] | 221 to 223 | – | – | – |
| CCN(C)C(=O)c1cn(-c2ccc(OCc3ccccc3)cc2)c(-c2ccc(OC)cc2)n1 [Example 46, 1-(4-Benzyloxyphenyl)-4-(N-ethyl-N-methylcarbamoyl)-2-(4-methoxyphenyl)-1H-imidazole] | 118 to 119 | – | – | – |

Source: patent publication US20070043084A1, “1,2-Diarylimidazoles useful as inhibitors of cox” (Astellas Pharma Inc., priority 2003, published 2007)
